Values quoted from earlier work as cited in patent publication US9302007B2, “Low surfactant iodine topical disinfectant” (DELAVAL HOLDING AB, priority 2011, dated 2016).

Settings: room temperature

## II
  solubility of iodine in water: about 300 ppm
